Test results: article PMC6213970, “Identification of Enolase as the Target of 2-Aminothiazoles in Mycobacterium tuberculosis” (Frontiers in Microbiology, 2018)

Molecular target: T1, human α-enolase (Homo sapiens, UniProt P06733)
T1 construct: gene ENO1; commercial enzyme (Sigma)
Experiment: pyruvate kinase-luciferase coupled assay (luminescence)
Type: biochemical
Conditions: 100 μM compound; 2-PG 0.2 mM (figure legend) or 0.5 mM (methods); 1 mM ADP, 10 mM MgSO4, 50 mM HEPES pH 7.0, 37°C, 1% DMSO

T1 sequence (P06733 2-434): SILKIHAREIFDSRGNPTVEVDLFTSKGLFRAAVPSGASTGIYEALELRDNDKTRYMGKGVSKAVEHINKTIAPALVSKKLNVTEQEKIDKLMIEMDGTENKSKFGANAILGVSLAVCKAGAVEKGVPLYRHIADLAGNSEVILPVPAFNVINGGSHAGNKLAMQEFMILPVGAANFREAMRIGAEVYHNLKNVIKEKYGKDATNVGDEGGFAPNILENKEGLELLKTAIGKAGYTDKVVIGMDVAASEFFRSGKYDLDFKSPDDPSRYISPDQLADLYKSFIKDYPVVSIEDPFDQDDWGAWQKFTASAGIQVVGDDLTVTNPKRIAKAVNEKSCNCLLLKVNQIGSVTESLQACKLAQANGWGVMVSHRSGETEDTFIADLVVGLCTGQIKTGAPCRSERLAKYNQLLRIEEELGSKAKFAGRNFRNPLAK

Q: IDR-0106963 was tested. Which “% inhibition at 100 μM” value did it give?
A: > 90%
